ChEMBL document CHEMBL2074233, “Expression and pharmacological profile of the human organic cation transporters hOCT1, hOCT2 and hOCT3” (Br J Pharmacol, 2002)

Columns and labels:
[1] = biological target: T1, Solute carrier family 22 member 3 (Homo sapiens, UniProt O75751); experiment: TP_TRANSPORTER: inhibition of MPP+ uptake (MPP+: 0.025 uM) in OCT3-expressing HEK293 cells
T1 sequence (O75751 whole entry): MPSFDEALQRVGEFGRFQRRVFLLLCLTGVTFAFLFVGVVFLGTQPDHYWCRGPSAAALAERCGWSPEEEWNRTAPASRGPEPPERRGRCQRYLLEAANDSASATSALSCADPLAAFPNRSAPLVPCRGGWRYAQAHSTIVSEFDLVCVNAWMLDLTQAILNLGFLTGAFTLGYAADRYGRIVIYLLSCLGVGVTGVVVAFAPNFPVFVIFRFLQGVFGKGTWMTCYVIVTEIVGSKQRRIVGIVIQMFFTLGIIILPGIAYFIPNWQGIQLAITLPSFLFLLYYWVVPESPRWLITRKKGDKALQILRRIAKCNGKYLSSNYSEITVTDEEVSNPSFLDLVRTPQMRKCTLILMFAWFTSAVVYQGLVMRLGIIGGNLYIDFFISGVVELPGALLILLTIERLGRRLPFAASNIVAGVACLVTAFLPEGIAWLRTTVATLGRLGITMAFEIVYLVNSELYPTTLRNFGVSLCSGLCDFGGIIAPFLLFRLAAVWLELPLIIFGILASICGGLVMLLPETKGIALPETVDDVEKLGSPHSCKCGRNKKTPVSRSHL

[2] = biological target: T2, Solute carrier family 22 member 1 (Homo sapiens, UniProt O15245); experiment: TP_TRANSPORTER: inhibition of MPP+ uptake (MPP+: 0.025 uM) in OCT1-expressing HEK293 cells
T2 sequence (O15245 whole entry): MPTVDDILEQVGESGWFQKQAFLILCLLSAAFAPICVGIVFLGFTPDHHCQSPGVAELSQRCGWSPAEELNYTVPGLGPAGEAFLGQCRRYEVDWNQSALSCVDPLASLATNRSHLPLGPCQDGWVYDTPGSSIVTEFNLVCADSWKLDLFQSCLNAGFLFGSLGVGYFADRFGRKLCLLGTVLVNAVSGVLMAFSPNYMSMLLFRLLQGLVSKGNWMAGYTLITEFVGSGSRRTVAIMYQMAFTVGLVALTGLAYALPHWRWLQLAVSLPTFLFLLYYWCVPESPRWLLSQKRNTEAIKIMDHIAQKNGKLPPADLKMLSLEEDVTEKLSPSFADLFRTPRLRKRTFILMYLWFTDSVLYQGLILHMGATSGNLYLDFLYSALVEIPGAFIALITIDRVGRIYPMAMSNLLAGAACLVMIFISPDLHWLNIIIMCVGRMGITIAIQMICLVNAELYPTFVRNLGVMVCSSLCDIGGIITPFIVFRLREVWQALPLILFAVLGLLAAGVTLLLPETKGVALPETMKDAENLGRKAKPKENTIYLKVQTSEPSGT

[3] = biological target: T3, Solute carrier family 22 member 2 (Homo sapiens, UniProt O15244); experiment: TP_TRANSPORTER: inhibition of MPP+ uptake (MPP+: 0.025 uM) in OCT2-expressing HEK293 cells
T3 sequence (O15244 whole entry): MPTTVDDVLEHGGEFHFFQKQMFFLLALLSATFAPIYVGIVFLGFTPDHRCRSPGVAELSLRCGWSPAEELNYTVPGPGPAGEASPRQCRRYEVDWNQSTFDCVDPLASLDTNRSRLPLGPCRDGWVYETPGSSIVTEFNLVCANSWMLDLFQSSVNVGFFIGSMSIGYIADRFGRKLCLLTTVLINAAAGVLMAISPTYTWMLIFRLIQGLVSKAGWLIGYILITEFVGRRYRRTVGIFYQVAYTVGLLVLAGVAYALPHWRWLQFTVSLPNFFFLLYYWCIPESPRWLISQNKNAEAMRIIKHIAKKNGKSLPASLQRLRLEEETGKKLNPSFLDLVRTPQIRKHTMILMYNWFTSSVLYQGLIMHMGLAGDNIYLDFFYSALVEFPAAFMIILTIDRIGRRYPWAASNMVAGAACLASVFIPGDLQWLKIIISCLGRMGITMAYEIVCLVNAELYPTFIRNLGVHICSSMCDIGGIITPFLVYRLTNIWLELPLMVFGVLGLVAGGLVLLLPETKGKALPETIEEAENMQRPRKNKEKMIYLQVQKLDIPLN

CC(=O)[C@H]1CC[C@H]2[C@@H]3CCC4=CC(=O)CC[C@]4(C)[C@H]3CC[C@]12C [PROGESTERONE]
IC50 [1]: 4280 nM
IC50 [2]: 3050 nM

CCN1/C(=C/c2ccc3ccccc3[n+]2CC)C=Cc2ccccc21
IC50 [1]: 90 nM
IC50 [2]: 980 nM
IC50 [3]: 1130 nM

COc1cc2nc(N3CCN(C(=O)c4ccco4)CC3)nc(N)c2cc1OC [PRAZOSIN]
IC50 [1]: 12600 nM
IC50 [2]: 1840 nM

C[C@]12C[C@H](O)[C@H]3[C@@H](CCC4=CC(=O)CC[C@@]43C)[C@@H]1CC[C@@H]2C(=O)CO [CORTICOSTERONE]
IC50 [1]: 290 nM
IC50 [2]: 21700 nM
IC50 [3]: 34200 nM

C[C@]12CC[C@@H]3c4ccc(O)cc4CC[C@H]3[C@@H]1CC[C@@H]2O [ESTRADIOL]
IC50 [1]: 2880 nM
IC50 [2]: 5730 nM

CC(COc1ccccc1)N(CCCl)Cc1ccccc1 (stereo not given) [PHENOXYBENZAMINE]
IC50 [1]: 6130 nM
IC50 [2]: 2720 nM

CN(CCCl)C1c2ccccc2-c2ccccc21
IC50 [1]: 50 nM
IC50 [2]: > 300 nM
IC50 [3]: 100 nM

COc1cc(C(O)CNC(C)C)ccc1O (stereo not given) [METIPRENALINE]
IC50 [1]: 4380 nM
IC50 [2]: > 100000 nM
IC50 [3]: > 100000 nM
